In US7655695B2, “Illudin analogs useful as anticancer agents” (The Regents of The University of California, priority 2005, dated 2010):
In brackets after ≈: the same amount, converted by molar mass. Like-named read-outs stand apart in the source and are kept apart here.

Key:
[1] = tested on: MV522 lung cancer cells; experiment: Thymidine incorporation into cellular DNA, 2 hour exposure, MV522 tumor cell line; type: cell-based; details: MV522, 2 hour exposure
Text: The anti-cancer activities of compounds 6, 7, 14, 16, 18, 20, 21 and 22 were compared to that of irofulven, 3, using MV522 lung cancer cells in vitro (See Kelner M. J. et al., Cancer Res. 1987, 47, 3186).

[2] = tested on: HT29 colon carcinoma; experiment: MTS viability assay, 1 hour exposure, HT29; type: cell-based; details: Homo sapiens, HT-29, HT29, 1 hour exposure
Protocol: (§1) Using four different cell lines, HT29 colon, OVCAR-3 ovarian, AsPC-1 pancreatic, and PC-3 prostate carcinoma, the IC50 values of compound 6 and irofulven were established for one hour incubations using the MTS viability assay (Buttke T. M. et al., J Immunol Methods. 1993, 157, 233).

[3] = tested on: OVCAR-3 ovarian carcinoma; experiment: MTS viability assay, 1 hour exposure, OVCAR-3; type: cell-based; details: Homo sapiens, OVCAR-3, 1 hour exposure
Protocol: as §1

[4] = tested on: AsPC-1 pancreatic carcinoma; experiment: MTS viability assay, 1 hour exposure, AsPC-1; type: cell-based
Protocol: as §1

[5] = tested on: PC-3 prostate carcinoma; experiment: MTS viability assay, 1 hour exposure, PC-3; type: cell-based; details: PC-3, 1 hour exposure
Protocol: as §1

[6] = tested on: subcutaneous MV522 tumors; experiment: MV522 mouse xenograft model; type: in vivo; details: 3/wk for 21 d; for PR (Partial Response): mice with partial response/mice
Protocol: The MV522 xenograft model was used to test the in vivo activity of compounds 6 and 7 as previously described (Kelner M. J. et al., Invest New Drugs. 1996, 14, 161). Mice bearing subcutaneous MV522 tumors were dosed intraperitoneally three times a week for three weeks (3/wk for 21 d) at 10 mg/kg of irofulven, doses ranging from 7.5 to 10 mg/kg for compound 6, or 5 to 15 mg/kg for compound 7 (FIGS. 1 and 2 and Table 3). Compound 6 had potent anti-tumor activity against MV522 tumors, producing 4/6 and 5/5 partial responses in mice treated with 7.5 and 10 mg/kg doses, respectively.
The MV522 xenograft model was used to test the in vivo activity of Compound 6 administration on a weekly schedule. Nude mice bearing subcutaneous MV522 tumors were dosed intraperitoneally (IP) 1/wk for 14 d at 17.5 mg/kg Compound 6 vs 7.5 mg/kg Compound 6 or 10 mg/kg irofulven on the intermittent schedule (3/wk for 21 d). The comparator dosages were the previously-determined efficacious MTDs for the 3/wk for 21 d schedule (FIG. 5).

[7] = Pharmacokinetics after single intravenous administration in male CD-1 mice; type: in vivo, mouse; details: for clearance: read-out: CLp (converted); for Vd: read-out: Vdss
Protocol: The pharmacokinetics (PK) of Compound 6 was investigated in the CD-1 male mouse. A single intravenous administration of 5 mg/kg was followed by sequential blood collections and analysis of plasma by LC/MS/MS.

[8] = Maximum tolerated dose on the 3/wk for 21 d schedule; details: nude, mouse, in vivo, IP, read-out: previously-determined efficacious MTD
Protocol: A novel dosing schedule for acyfulvene analogs is described herein. This dosing schedule requires less frequent administration of individual dosages exceeding the previously-determined maximum tolerated dose (MTD) for each dose on an intermittent schedule of 3/wk for 21 d. For example, compound 6 was tested on a dosing schedule of 1/wk for 14 d. On this schedule, the total cumulative dose was less than the total cumulative dose administered on the 3/wk for 21 d-schedule, but with equal efficacy (FIG. 5). The 3/wk for 21 d dosing schedule is a standard method of administration for irofulven. The 1/wk for […] schedule for Compound 6 disclosed herein was unexpected based on prior work and presents a unique opportunity to administer less total dose of a cytotoxic chemotherapeutic less frequently and thereby reduce the overall toxic effect on the patient. This represents an increase in human safety and compliance, as a weekly dosing schedule is easier to follow than a more frequent dosing schedule.
The MV522 xenograft model was used to test the in vivo activity of Compound 6 administration on a weekly schedule. […] The comparator dosages were the previously-determined efficacious MTDs for the 3/wk for 21 d schedule (FIG. 5).

[9] = Plasma stability in pooled fresh human plasma at 37° C., LC/MS/MS; type: in vitro ADME
Text: Compounds 6 and 7 were compared against irofulven for their respective plasma stability (e.g., the enhanced stability or in vivo terminal phase elimination half life (T½) of a compound in plasma; it is believed that the greater the stability and T½ the more likely it is that the compound will be incorporated into or have an effect on a cancerous cell, such as cells of a tumor or a hematologic cancerous cell). Pooled fresh human plasma was spiked with each analog, and the compound stability profile was measured at 37° C. using LC/MS/MS. […] These properties differentiate Compounds 6 and 7 from irofulven and may have enhanced therapeutic potential. The increased plasma stability of Compound 6 may be particularly advantageous in drug formulation and delivery as it relates to increased exposure of the tumor to the drug. Thus, compound 6 has increased stability in human plasma in vitro (FIG. 3).

[10] = Homo sapiens, ASPC1, AsPC-1, 1 hour exposure, read-out: GI50
[11] = mouse, plasma, 5 mg/kg IV, concentrations extrapolated from a 12.9 mg/kg IV dose
[12] = mouse, plasma, 5 mg/kg single IV

## CC1=C(CO)C2=C(C)C3(CC3)[C@@](C)(O)C(=O)C2=C1 [Irofulven, 6-hydroxymethylacylfulvene, reference compound]
[1]
  IC50: 1200 ± 100 nM
[2]
  GI50: 1.4 µg/mL (≈ 5.68 µM)
[3]
  GI50: 0.15 µg/mL (≈ 0.609 µM)
[4]; [10]
  GI50: > 100 µg/mL
[5]
  GI50: 0.58 µg/mL (≈ 2.35 µM)
[6]; 10 mg/kg i.p.
  % Tumor Growth Inhibition: 100%
  Relative Mean Tumor Weight (Wt/Wi): 0.8
  PR (Partial Response): 6/7
[7]; [11]
  AUC(0-inf): 695 ng·h/mL
  half-life: 0.0988 h
  clearance: 120 mL/min/kg
  Vd: 0.948 L/kg
[7]; mouse, plasma, 5 mg/kg IV, concentrations extrapolated from a 12.9 mg/kg IV dose, read-out: AUC (0-t)
  AUC(0-t): 691 ng·h/mL
[7]; mouse, plasma, 5 mg/kg IV, concentrations extrapolated from a 12.9 mg/kg IV dose, read-out: Cmax
  Cmax: 5650 ng/mL
[8]
  MTD at 21 d: 10 mg/kg

## CC1=C(CN(O)C(N)=O)C2=C(C)C3(CC3)[C@@](C)(O)C(=O)C2=C1 [Compound 6, N-hydroxy-N-(methylacylfulvene)urea]
[2]
  GI50: 0.68 µg/mL (≈ 2.23 µM)
[3]
  GI50: 0.6 µg/mL (≈ 1.97 µM)
[4]; AsPC-1, 1 hour exposure
  GI50: greater potency
[4]; [10]
  GI50: 16 µg/mL (≈ 52.6 µM)
[5]
  GI50: 0.41 µg/mL (≈ 1.35 µM)
[6]; 7.5 mg/kg i.p.
  % Tumor Growth Inhibition: 100%
  Relative Mean Tumor Weight (Wt/Wi): 0.9
  PR (Partial Response): 4/6
[6]; 10 mg/kg i.p.
  % Tumor Growth Inhibition: 100%
  Relative Mean Tumor Weight (Wt/Wi): 0.3
  PR (Partial Response): 5/5
[9]
  stability in human plasma compared with irofulven: more stable
[7]; 5 mg/kg single IV
  AUC(0-t): greater
  CLp: reduced
  Cmax: greater
  T1/2: significantly longer
  Vdss: reduced
[7]; [12]
  AUC(0-inf): 2200 ng·h/mL
  half-life: 2.36 h
  clearance: 37.8 mL/min/kg
  Vd: 0.548 L/kg
[7]; mouse, plasma, 5 mg/kg single IV, read-out: AUC (0-t)
  AUC(0-t): 2200 ng·h/mL
[7]; mouse, plasma, 5 mg/kg single IV, read-out: Cmax
  Cmax: 9730 ng/mL
[8]
  MTD at 21 d: 7.5 mg/kg

## CC(=O)ON(CC1=C(C)C=C2C(=O)[C@](C)(O)C3(CC3)C(C)=C21)C(N)=O [Compound 7, N-Acetoxy-N-(methylacylfulvene)urea]
[6]; 5 mg/kg i.p.
  % Tumor Growth Inhibition: 56%
  Relative Mean Tumor Weight (Wt/Wi): 4.5
[6]; 5 mg/kg i.p., listed as compound 7
  % Tumor Growth Inhibition: 56%
[6]; 10 mg/kg i.p.
  % Tumor Growth Inhibition: 79%
  Relative Mean Tumor Weight (Wt/Wi): 2.2
[6]; 10 mg/kg i.p., listed as compound 7
  % Tumor Growth Inhibition: 79%
[6]; 15 mg/kg i.p.
  % Tumor Growth Inhibition: 100%
  Relative Mean Tumor Weight (Wt/Wi): 0.7
  PR (Partial Response): 4/6
[9]
  stability in human plasma compared with irofulven: less stable
